Data taken from patent US20080152589A1, “Diagnostics and Therapeutics of Neurological Disease” (priority 2006, published 2008).

How the values were obtained:
[1] = self-administered questionnaire on lithium-induced side-effects, stratified by GSK3B and MAPT haplotype; type: in vivo, human; settings: for Odds Ratio, hand tremor present vs absent (pooled High GSKΔexon9 and Low GSKΔexon9+11 haplotypes vs others): lithium treatment; for mean overall side-effect score (SE score): patients administered lithium, 24 items, maximum total score 96
Experimental: Participants (n=84) suffering from a neurological disease who had been administered lithium as a therapeutic were assessed for the prevalence and pattern of lithium-induced side-effects using a self-administered questionnaire. This questionnaire was a modified version of the data collection form from a clinical trial, asking participants to rate 24 side-effect items as ‘Not present’, ‘Mild’, ‘Moderate’, ‘Severe’ and ‘Very Severe’. The 24 items listed include: nausea, vomiting, diarrhea, constipation, weight gain, weight loss, dizziness or light-headedness, blurred vision, hand tremor, muscle weakness, slurred speech, lack of coordination or unsteady gait, poor concentration mental slowing or confusion, forgetfulness or difficulty with memory/recall, drowsiness or sleepiness, worsening mood symptoms, skin rash, hair loss, thirst, dry mouth, metallic taste in mouth, loss of ability to taste food, need to pass urine much more frequently or more urgently, urinary incontinence. An overall side-effect score (SE score) was calculated for each patient based on the above 24 items and their respective grading. A score of zero was given for an absent side effect and increased to a score of 4 for a very severe side effect to give a maximum total score of 96 for each patient.
Each individual was genotyped and classified as having 0, 1 or 2 copies of the disease ‘risk’ GSK3B haplotypes (A-T-C, T-C-C and A-C-T) based on the three functional polymorphisms rs375557, rs334558 and rs6438552. In the subset of patients having a GSK-3B ‘risk’ haplotype and at least one H2 MAPT haplotype, a lower SE score was observed (12.3±2.2) compared to patients with no ‘risk’ haplotype (14.6±2.0).
The relationship between the ‘risk’ haplotypes in GSK3B and common side effect of lithium therapy, hand tremor, was then examined, the results of which are shown in Table 8. […] This information is pertinent, because lithium, which is a therapeutic agent for a number of disorders including bipolar affective disorders and Alzheimer's disease, has significant side effects. Accordingly, assays that detect the presence of a GSK-3B ‘risk’ haplotype optionally combined with detection of a MAPT H2 haplotype are useful for determining subjects likely to respond to treatment and/or that are unlikely to develop a side-effect as a result of treatment.

[2] = target: endogenous Tau of COS-7 cells; assay: cell-based or functional assay

Compound	Odds Ratio, hand tremor present vs absent (pooled High GSKΔexon9 and Low GSKΔexon9+11 haplotypes vs others) ([1]; MAPT H1/H1)	Odds Ratio, hand tremor present vs absent (pooled High GSKΔexon9 and Low GSKΔexon9+11 haplotypes vs others) ([1]; MAPT H1/H2 + H2/H2 (at least one H2 haplotype))	Odds Ratio, hand tremor present vs absent (pooled High GSKΔexon9 and Low GSKΔexon9+11 haplotypes vs others) ([1]; all MAPT haplotypes)	mean overall side-effect score (SE score) ([1]; GSK-3B 'risk' haplotype and at least one H2 MAPT haplotype)	mean overall side-effect score (SE score) ([1]; no 'risk' haplotype)	levels of Tau [pSer396] by ELISA in transfected COS-7 cells, compared with the other GSK-3β cDNAs [2]
[Li] [lithium]	1.32	0.24	0.57	12.3±2.2	14.6±2.0	
GSKΔexon9+11 (GSK-3β splice isoform lacking exons 9 and 11) (from UniProt P49841 1-420) (enzyme)						2.5 fold
